# Patent US20070010671A1, “Novel quinazoline derivatives and methods of treatment related to the use thereof” (priority 2003, published 2007)
# Molecular target: MCH receptor (Homo sapiens, UniProt Q99705)
# Test: High throughput functional screening FLIPR/FDSS6000: inhibition of MCH-evoked intracellular Ca2+ changes
# Format: cell-based
# Conditions: class by percent of control at 10^-7 M or IC50
# How it was run: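 In a kinetic calcium-flux format, compounds were tested at various concentrations against 50 nM MCH. Fluo4-loaded cells expressing a constitutively active, non-endogenous receptor were imaged at 488/530 nm for 290 s after agonist addition.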
row,Structure (SMILES),class
1,COc1cc([N+](=O)[O-])ccc1NC(=S)NC[C@H]1CC[C@@H](Nc2nc(N(C)C)c3ccccc3n2)CC1 [compound 644],3 (Class 3: The value of percent of control at 10^−7 M was more than 60% or the value of IC50 was more than 200 nM.)
2,CN(C)c1nc(N[C@H]2CC[C@@H](NC(=S)Nc3cc(C(F)(F)F)ccc3Cl)CC2)nc2ccccc12 [compound 253],3 (Class 3: The value of percent of control at 10^−7 M was more than 60% or the value of IC50 was more than 200 nM.)
3,COc1cc(OC)c(NC(=O)NC[C@H]2CC[C@@H](Nc3nc(N(C)C)c4ccccc4n3)CC2)cc1Cl [compound 563],3 (Class 3: The value of percent of control at 10^−7 M was more than 60% or the value of IC50 was more than 200 nM.)
4,CN(C)c1nc(N[C@H]2CC[C@@H](CNC(=S)Nc3ccc(Br)cc3OC(F)(F)F)CC2)nc2ccccc12 [compound 793],2 (Class 2: The value of percent of control at 10^−7 M was from 40% to 60% or the value of IC50 was from 50 nM to 200 nM.)
5,CN(C)c1nc(N[C@H]2CC[C@@H](NC(=S)Nc3ccc(Cl)c([N+](=O)[O-])c3)CC2)nc2ccccc12 [compound 270],3 (Class 3: The value of percent of control at 10^−7 M was more than 60% or the value of IC50 was more than 200 nM.)
6,"CN(C)c1nc(N[C@H]2CC[C@@H](CNC(=O)Nc3c(Cl)cccc3Cl)CC2)nc2ccccc12 [compound 483, N-(2,6-dichlorophenyl)-N′-[(cis-4-{[4-(dimethylamino)quinazolin-2-yl]amino}cyclohexyl)methyl]urea]",1 (Class 1: The value of percent of control at 10^−7 M was less than 40% or the value of IC50 was less than 50 nM.)
7,"CN(C)c1nc(N[C@H]2CC[C@@H](NC(=S)Nc3ccc(N(C)C)c4ccccc34)CC2)nc2ccccc12 [compound 389, N-[4-(dimethylamino)-1-naphthyl]-N′-(cis-4-{[4-(dimethylamino)quinazolin-2-yl]amino}cyclohexyl)thiourea]",1 (Class 1: The value of percent of control at 10^−7 M was less than 40% or the value of IC50 was less than 50 nM.)
8,CN(C)c1nc(N[C@H]2CC[C@@H](CNC(=S)NCC(c3ccccc3)c3ccccc3)CC2)nc2ccccc12 [compound 714],3 (Class 3: The value of percent of control at 10^−7 M was more than 60% or the value of IC50 was more than 200 nM.)
9,CN(C)c1nc(N[C@H]2CC[C@@H](CNC(=O)NCCc3ccccc3)CC2)nc2ccccc12 [compound 571],3 (Class 3: The value of percent of control at 10^−7 M was more than 60% or the value of IC50 was more than 200 nM.)
10,CN(C)c1nc(N[C@H]2CC[C@@H](CNC(=S)Nc3ccc(Br)cc3Cl)CC2)nc2ccccc12 [compound 657],3 (Class 3: The value of percent of control at 10^−7 M was more than 60% or the value of IC50 was more than 200 nM.)
11,CN(C)c1nc(N[C@H]2CC[C@@H](NC(=S)NCCC3=CCCCC3)CC2)nc2ccccc12 [compound 358],2 (Class 2: The value of percent of control at 10^−7 M was from 40% to 60% or the value of IC50 was from 50 nM to 200 nM.)
12,CN(C)c1nc(N[C@H]2CC[C@@H](NC(=S)NCC3CC3)CC2)nc2ccccc12 [compound 379],3 (Class 3: The value of percent of control at 10^−7 M was more than 60% or the value of IC50 was more than 200 nM.)
13,COc1ccc(Cl)cc1NC(=O)NC[C@H]1CC[C@@H](Nc2nc(N(C)C)c3ccccc3n2)CC1 [compound 564],3 (Class 3: The value of percent of control at 10^−7 M was more than 60% or the value of IC50 was more than 200 nM.)
14,CCOC(=O)c1ccccc1NC(=O)NC[C@H]1CC[C@@H](Nc2nc(N(C)C)c3ccccc3n2)CC1 [compound 491],3 (Class 3: The value of percent of control at 10^−7 M was more than 60% or the value of IC50 was more than 200 nM.)
15,"CN(C)c1nc(N[C@H]2CC[C@@H](NC(=S)Nc3c(F)cc(Br)cc3Br)CC2)nc2ccccc12 [compound 360, N-(2,4-dibromo-6-fluorophenyl)-N′-(cis-4-{[4-(dimethylamino)quinazolin-2-yl]amino}cyclohexyl)thiourea]",1 (Class 1: The value of percent of control at 10^−7 M was less than 40% or the value of IC50 was less than 50 nM.)
16,"CC(NC(=S)N[C@H]1CC[C@@H](Nc2nc(N(C)C)c3ccccc3n2)CC1)c1ccc(F)cc1 (relative stereo) [compound 273, N-(cis-4-{[4-(dimethylamino)quinazolin-2-yl]amino}cyclohexyl)-N′-[1-(4-fluorophenyl)ethyl]thiourea]",2 (Class 2: The value of percent of control at 10^−7 M was from 40% to 60% or the value of IC50 was from 50 nM to 200 nM.)
17,"CN(C)c1nc(N[C@H]2CC[C@@H](NC(=S)NCC(c3ccccc3)c3ccccc3)CC2)nc2ccccc12 [compound 290, N-(cis-4-{[4-(dimethylamino)quinazolin-2-yl]amino}cyclohexyl)-N′-(2,2-diphenylethyl)thiourea]",2 (Class 2: The value of percent of control at 10^−7 M was from 40% to 60% or the value of IC50 was from 50 nM to 200 nM.)
18,CC(=O)c1ccc(NC(=S)NC[C@H]2CC[C@@H](Nc3nc(N(C)C)c4ccccc4n3)CC2)cc1 [compound 578],3 (Class 3: The value of percent of control at 10^−7 M was more than 60% or the value of IC50 was more than 200 nM.)
19,CCOC(=O)c1cccc(NC(=O)NC[C@H]2CC[C@@H](Nc3nc(N(C)C)c4ccccc4n3)CC2)c1 [compound 430],3 (Class 3: The value of percent of control at 10^−7 M was more than 60% or the value of IC50 was more than 200 nM.)
20,"Cc1ccccc1NC(=O)NC[C@H]1CC[C@@H](Nc2nc(N(C)C)c3ccccc3n2)CC1 [compound 460, N-[(cis-4-{[4-(dimethylamino)quinazolin-2-yl]amino}cyclohexyl)methyl]-N′-(2-methylphenyl)urea]",1 (Class 1: The value of percent of control at 10^−7 M was less than 40% or the value of IC50 was less than 50 nM.)
21,"CC(C)c1ccccc1NC(=S)N[C@H]1CC[C@@H](Nc2nc(N(C)C)c3ccccc3n2)CC1 [compound 256, N-(cis-4-{[4-(dimethylamino)quinazolin-2-yl]amino}cyclohexyl)-N′-(2-isopropylphenyl)thiourea]",1 (Class 1: The value of percent of control at 10^−7 M was less than 40% or the value of IC50 was less than 50 nM.)

# Same assay, conditions: class by percent of control at 10^-7 M or by IC50; read-out: class
row,IC50,Structure (SMILES)
1,> 200 nM,CN(C)c1nc(N[C@H]2CC[C@@H](NC(=S)Nc3ccc(Cl)c(Cl)c3)CC2)nc2ccccc12 [compound 170]
2,> 200 nM,CN(C)c1nc(N[C@H]2CC[C@@H](NC(=O)Nc3cc(F)cc(C(F)(F)F)c3)CC2)nc2ccccc12 [compound 133]
3,> 200 nM,CN(C)c1nc(N[C@H]2CC[C@@H](NC(=S)Nc3cccc([N+](=O)[O-])c3)CC2)nc2ccccc12 [compound 188]
4,< 50 nM,"CCOC(=O)c1cccc(NC(=O)N[C@H]2CC[C@@H](Nc3nc(N(C)C)c4ccccc4n3)CC2)c1 [compound 29, ethyl 3-({[(cis-4-{[4-(dimethylamino)quinazolin-2-yl]amino}cyclohexyl)amino]carbonyl}amino)benzoate]"
5,> 200 nM,Cc1ccc(NC(=O)N[C@H]2CC[C@@H](Nc3nc(N(C)C)c4ccccc4n3)CC2)cc1[N+](=O)[O-] [compound 829]
6,> 200 nM,CN(C)c1nc(N[C@H]2CC[C@@H](NC(=O)Nc3cccc(C#N)c3)CC2)nc2ccccc12 [compound 17]
7,< 50 nM,CC(NC(=O)N[C@H]1CC[C@@H](Nc2nc(N(C)C)c3ccccc3n2)CC1)c1ccc(Br)cc1 (relative stereo) [compound 151]
8,50 to 200 nM,"CN(C)c1nc(N[C@H]2CC[C@@H](NC(=O)Nc3ccc(F)c(F)c3)CC2)nc2ccccc12 [compound 123, N-(3,4-difluorophenyl)-N′-(cis-4-{[4-(dimethylamino)quinazolin-2-yl]amino}cyclohexyl)urea]"

# Same assay, conditions: class by percent of control at 10^−7 M or by IC50; read-out: class
row,IC50,Structure (SMILES)
1,< 50 nM,"CC(=O)Nc1cccc(C(=O)N[C@H]2CC[C@@H](Nc3nc(N(C)C)c4ccccc4n3)CC2)c1 [Example 1204, 3-(acetylamino)-N-(cis-4-{[4-(dimethylamino)quinazolin-2-yl]amino}cyclohexyl)benzamide]"
2,< 50 nM,"CN(C)c1nc(N[C@H]2CC[C@@H](NC(=O)c3cccnc3Oc3ccccc3OC(F)(F)F)CC2)nc2ccccc12 [Example 1033, N-(cis-4-{[4-(dimethylamino)quinazolin-2-yl]amino}cyclohexyl)-2-[2-(trifluoromethoxy)phenoxy]nicotinamide]"
3,< 50 nM,"C[C@@H](NC(=O)[C@H]1CC[C@@H](Nc2nc(N(C)C)c3ccccc3n2)CC1)c1ccc(Cl)cc1 [Example 1139, cis-N-[(1R)-1-(4-chlorophenyl)ethyl)-4-{[4-(dimethylamino)quinazolin-2-yl]amino}cyclohexanecarboxamide]"
4,< 50 nM,"CN(C)c1nc(N[C@H]2CC[C@@H](NC(=O)[C@H](O)c3cccc(Cl)c3)CC2)nc2ccccc12 [Example 1111, (2R)-2-(3-chlorophenyl)-N-(cis-4-{[4-(dimethylamino)-quinazolin-2-yl]amino}cyclohexyl)-2-hydroxyacetamide]"
5,> 200 nM,"CN(C)c1nc(N[C@H]2CC[C@@H](C(=O)Nc3cccnc3Cl)CC2)nc2ccccc12 [Example 1197, cis-N-(2-chloropyridin-3-yl)-4-{[4-(dimethylamino)quinazolin-2-yl]amino}cyclohexanecarboxamide]"
6,50 to 200 nM,"CN(C)c1nc(N[C@H]2CC[C@@H](CNC(=O)c3ccc(Cl)cc3)C2)nc2ccccc12 [Example 1121, 4-chloro-N-[((1R,3S)-3-{[4-(dimethylamino)quinazolin-2-yl]amino}cyclopentyl)methyl]benzamide]"
7,< 50 nM,"CN(C)c1nc(N[C@H]2CC[C@@H](NC(=O)c3ccc(Oc4ccc(Cl)cc4)nc3)CC2)nc2ccccc12 [Example 1060, 6-(4-chlorophenoxy)-N-(cis-4-{[4-(dimethylamino)quinazolin-2-yl]amino}cyclohexyl)nicotinamide]"
